This assay has as its target T1, ΔF508-CFTR (Homo sapiens, UniProt P13569, DEL508-508).
T1 construct: expressed in transfected cells
Description: Membrane potential optical assay (FRET voltage-sensor dyes, VIPR), identification of potentiator compounds. It is filed as cell-based. As to conditions: Table 3; assay not given; read-out: % Activity (% Efficacy, relative efficacy). Put shortly: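 NIH3T3 mouse fibroblasts stably expressing ΔF508-CFTR, cultured 24 h at 27 °C, were loaded with FRET voltage dyes CC2-DMPE and DiSBAC2(3). Double-addition format: first addition of Cl⁻-free (gluconate) medium with or without compound; membrane-potential change read as fluorescence on VIPR II.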
T1 sequence (P13569 with tags, fused parts or gaps DEL508-508): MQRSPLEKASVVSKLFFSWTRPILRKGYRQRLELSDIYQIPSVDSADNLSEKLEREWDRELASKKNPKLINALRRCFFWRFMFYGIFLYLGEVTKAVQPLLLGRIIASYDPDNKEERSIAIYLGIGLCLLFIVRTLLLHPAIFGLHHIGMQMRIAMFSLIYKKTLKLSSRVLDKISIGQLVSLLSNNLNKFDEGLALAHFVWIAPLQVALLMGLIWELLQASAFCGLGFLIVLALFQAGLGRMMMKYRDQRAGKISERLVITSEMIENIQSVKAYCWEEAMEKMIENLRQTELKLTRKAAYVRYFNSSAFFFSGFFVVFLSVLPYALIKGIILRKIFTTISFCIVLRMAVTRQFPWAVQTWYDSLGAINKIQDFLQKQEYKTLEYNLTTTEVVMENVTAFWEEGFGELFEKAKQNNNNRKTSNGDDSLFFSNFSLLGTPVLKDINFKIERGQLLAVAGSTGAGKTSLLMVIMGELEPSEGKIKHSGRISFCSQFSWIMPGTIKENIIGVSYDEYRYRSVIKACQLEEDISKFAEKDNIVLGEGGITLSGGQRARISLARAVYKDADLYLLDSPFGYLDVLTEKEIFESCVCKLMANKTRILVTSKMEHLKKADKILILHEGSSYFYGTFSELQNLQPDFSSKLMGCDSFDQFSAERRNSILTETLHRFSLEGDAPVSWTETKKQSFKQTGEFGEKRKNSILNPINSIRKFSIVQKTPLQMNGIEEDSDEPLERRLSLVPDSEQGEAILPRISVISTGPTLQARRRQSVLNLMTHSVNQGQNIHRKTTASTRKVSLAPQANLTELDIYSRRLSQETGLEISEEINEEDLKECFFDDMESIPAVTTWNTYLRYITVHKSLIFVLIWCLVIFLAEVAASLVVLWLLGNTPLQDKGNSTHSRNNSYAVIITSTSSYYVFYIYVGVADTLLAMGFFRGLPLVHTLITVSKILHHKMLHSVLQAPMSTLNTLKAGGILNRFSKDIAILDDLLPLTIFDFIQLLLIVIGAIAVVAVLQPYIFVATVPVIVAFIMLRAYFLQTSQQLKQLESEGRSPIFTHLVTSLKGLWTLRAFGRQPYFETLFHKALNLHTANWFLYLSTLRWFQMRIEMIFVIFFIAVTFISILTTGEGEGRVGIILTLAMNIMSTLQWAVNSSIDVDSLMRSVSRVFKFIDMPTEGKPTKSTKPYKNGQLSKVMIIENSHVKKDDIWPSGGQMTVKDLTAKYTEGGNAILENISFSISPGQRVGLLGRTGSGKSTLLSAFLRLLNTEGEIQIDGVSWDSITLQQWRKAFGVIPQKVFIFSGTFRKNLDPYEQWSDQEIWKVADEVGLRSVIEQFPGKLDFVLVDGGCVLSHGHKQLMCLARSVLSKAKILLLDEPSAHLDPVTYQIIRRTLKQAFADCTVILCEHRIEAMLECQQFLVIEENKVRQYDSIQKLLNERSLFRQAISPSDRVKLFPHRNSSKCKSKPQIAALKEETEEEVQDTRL
In the case of `N#Cc1ccc(NC(=O)c2c[nH]c3ccccc3c2=O)cc1` [Compound 194, N-(4-cyanophenyl)-4-oxo-1H-quinoline-3-carboxamide], the Emax is < 25%.

As to `CC(C)c1ccc(NC(=O)c2c[nH]c3ccccc3c2=O)cc1N(C)C` [Compound 117, N-(3-dimethylamino-4-isopropyl-phenyl)-4-oxo-1H-quinoline-3-carboxamide], the Emax lay within 25 to 100%.

For the compound `O=C(Nc1ccc2oc(-c3ccccc3)nc2c1)c1c[nH]c2ccccc2c1=O` [Compound 376, 4-oxo-N-(2-phenylbenzooxazol-5-yl)-1H-quinoline-3-carboxamide], the Emax is < 25%.

`COc1cc(NC(=O)c2c[nH]c3ccccc3c2=O)ccc1C(C)(C)C` [Compound 2, N-(3-methoxy-4-tert-butyl-phenyl)-4-oxo-1H-quinoline-3-carboxamide]: the Emax was in the range of 25 to 100%.

For `O=C(Nc1ccccc1-c1cccc(Cl)c1)c1c[nH]c2ccccc2c1=O` [Compound 307, N-[2-(3-chlorophenyl)phenyl]-4-oxo-1H-quinoline-3-carboxamide], the Emax is 25 to 100%.

With `COC(=O)[C@]1(C)CCCN1c1ccc(NC(=O)c2c[nH]c3ccccc3c2=O)c(C(F)(F)F)c1` [Compound 631, (S)-methyl 2-methyl-1-(4-(4-oxo-1,4-dihydroquinoline-3-carboxamido)-3-(trifluoromethyl)phenyl)pyrrolidine-2-carboxylate], the Emax is > 100%.

On to `CCOc1cccc(-c2cc(C(C)(C)C)c(O)cc2NC(=O)c2c[nH]c3ccccc3c2=O)c1` [Compound 43, N-[2-(3-ethoxyphenyl)-5-hydroxy-4-tert-butyl-phenyl]-4-oxo-1H-quinoline-3-carboxamide], for which the Emax lay within 25 to 100%.

For `O=C(Nc1ccccc1-c1ccc(Cl)c(Cl)c1)c1c[nH]c2ccccc2c1=O` [Compound 85, N-[2-(3,4-dichlorophenyl)phenyl]-4-oxo-1H-quinoline-3-carboxamide], the Emax fell in the range of 25 to 100%.

For `CCc1cc(C(C)(C)C)c(O)cc1NC(=O)c1c[nH]c2ccc(F)cc2c1=O` [Compound 649, N-(2-ethyl-5-hydroxy-4-tert-butyl-phenyl)-6-fluoro-4-oxo-1H-quinoline-3-carboxamide], the Emax was 25 to 100%.

Regarding `Cc1ccc2[nH]cc(C(=O)Nc3cc(O)c(C(C)(C)C)cc3C(C)(C)C)c(=O)c2c1` [Compound 688, N-(5-hydroxy-2,4-ditert-butyl-phenyl)-6-methyl-4-oxo-1H-quinoline-3-carboxamide], the Emax fell in the range of 25 to 100%.

As for `O=C(Nc1ccccc1-c1cc(Cl)cc(Cl)c1)c1c[nH]c2ccccc2c1=O` [Compound 367, N-[2-(3,5-dichlorophenyl)phenyl]-4-oxo-1H-quinoline-3-carboxamide], the Emax was in the range of 25 to 100%.

As for `CC(C)c1ccc(NC(=O)c2c[nH]c3ccccc3c2=O)c(C(F)(F)F)c1` [Compound 47, N-[4-isopropyl-2-(trifluoromethyl)phenyl]-4-oxo-1H-quinoline-3-carboxamide], the Emax lay within 25 to 100%.

For `COc1ccc(NC(=O)c2c[nH]c3ccccc3c2=O)c(OC)n1` [Compound 193, N-(2,6-dimethoxy-3-pyridyl)-4-oxo-1H-quinoline-3-carboxamide], the Emax fell in the range of 25 to 100%.

Take `CC1(c2ccc(NC(=O)c3c[nH]c4ccc(F)cc4c3=O)cc2)COC1` [Compound 521, 6-fluoro-N-[4-(3-methyloxetan-3-yl)phenyl]-4-oxo-1H-quinoline-3-carboxamide]: the Emax was in the range of 25 to 100%.

For the compound `CN(C)c1cccc(NC(=O)c2c[nH]c3ccccc3c2=O)c1` [Compound 418, N-(3-dimethylaminophenyl)-4-oxo-1H-quinoline-3-carboxamide], the Emax was in the range of 25 to 100%.

On to `O=C(Nc1ccc2[nH]ncc2c1)c1c[nH]c2ccccc2c1=O` [Compound 217, N-(1H-indazol-5-yl)-4-oxo-1H-quinoline-3-carboxamide], for which the Emax lay within 25 to 100%.

In the case of `CCCOc1ccc(N)cc1NC(=O)c1c[nH]c2ccccc2c1=O` [Compound 17, N-(5-Amino-2-propoxy-phenyl)-4-oxo-1H-quinoline-3-carboxamide], the Emax was in the range of 25 to 100%.

On to `O=C(Nc1ccc2c(C(F)(F)F)c[nH]c2c1)c1c[nH]c2ccccc2c1=O` [Compound 545, 4-oxo-N-[3-(trifluoromethyl)-1H-indol-6-yl]-1H-quinoline-3-carboxamide], for which the Emax is > 100%.

On to `CC(CO)(CO)c1ccc(NC(=O)c2c[nH]c3cccc(O)c3c2=O)cc1` [Compound 493, 5-hydroxy-N-[4-[2-hydroxy-1-(hydroxymethyl)-1-methyl-ethyl]phenyl]-4-oxo-1H-quinoline-3-carboxamide], for which the Emax fell in the range of 25 to 100%.

Regarding `NS(=O)(=O)c1ccc(NC(=O)c2c[nH]c3ccccc3c2=O)cc1` [Compound 165, 4-oxo-N-(4-sulfamoylphenyl)-1H-quinoline-3-carboxamide], the Emax was < 25%.

Turning to `O=C(Nc1ccccc1-c1cc(F)ccc1F)c1c[nH]c2ccccc2c1=O` [Compound 384, N-[2-(2,5-difluorophenyl)phenyl]-4-oxo-1H-quinoline-3-carboxamide], the Emax fell in the range of 25 to 100%.

For the compound `CN(C)c1ccc2[nH]cc(C(=O)Nc3cc(O)c(C(C)(C)C)cc3C(C)(C)C)c(=O)c2c1` [Compound 544, 6-dimethylamino-N-(5-hydroxy-2,4-ditert-butyl-phenyl)-4-oxo-1H-quinoline-3-carboxamide], the Emax is 25 to 100%.

As to `Cc1ccc2[nH]cc(C(=O)Nc3ccc(N4[C@H](C)CC[C@H]4C)cc3C(F)(F)F)c(=O)c2c1` [Compound 569, N-(4-((2R,5R)-2,5-dimethylpyrrolidin-1-yl)-2-(trifluoromethyl)phenyl)-6-methyl-4-oxo-1,4-dihydroquinoline-3-carboxamide], the Emax is 25 to 100%.

`CC(C)(C)c1cc(C(C)(C)C)c(NC(=O)c2c[nH]c3ccc(S(=O)(=O)N4CCCC4)cc3c2=O)cc1O` [Compound 255, N-(5-hydroxy-2,4-ditert-butyl-phenyl)-4-oxo-6-pyrrolidin-1-ylsulfonyl-1H-quinoline-3-carboxamide]: the Emax is 25 to 100%.

Take `O=C(Nc1ccccc1Oc1ccccc1)c1c[nH]c2ccccc2c1=O` [Compound 413, 4-oxo-N-(2-phenoxyphenyl)-1H-quinoline-3-carboxamide]: the Emax lay within 25 to 100%.

`O=C(Nc1ccc2[nH]ccc2c1)c1c[nH]c2ccccc2c1=O` [Compound 294, N-(1H-indol-5-yl)-4-oxo-1H-quinoline-3-carboxamide]: the Emax lay within 25 to 100%.

As for `CC(C)(C)c1ccc(O)cc1NC(=O)c1c[nH]c2ccccc2c1=O` [Compound 662, N-(5-hydroxy-2-tert-butyl-phenyl)-4-oxo-1H-quinoline-3-carboxamide], the Emax is > 100%.

Regarding `CC1(c2cc(F)c(NC(=O)c3cnc4ccccc4c3O)cc2O)CCCCCC1` [Compound 483, N-[2-fluoro-5-hydroxy-4-(1-methylcycloheptyl)-phenyl]-4-hydroxy-quinoline-3-carboxamide], the Emax was 25 to 100%.

As for `Cc1cccc2[nH]cc(C(=O)Nc3ccc(N4CCC(C)C4)cc3C(F)(F)F)c(=O)c12` (stereo not drawn) [Compound 546, 5-methyl-N-[4-(3-methylpyrrolidin-1-yl)-2-(trifluoromethyl)phenyl]-4-oxo-1H-quinoline-3-carboxamide], the Emax lay within 25 to 100%.

For `NCc1ccccc1-c1ccc(NC(=O)c2c[nH]c3ccccc3c2=O)cc1` [Compound 86, N-[4-[2-(aminomethyl)phenyl]phenyl]-4-oxo-1H-quinoline-3-carboxamide], the Emax lay in the range of 25 to 100%.

As for `Cc1ccnc(NC(=O)c2c[nH]c3ccccc3c2=O)c1` [Compound 84, N-(4-methyl-2-pyridyl)-4-oxo-1H-quinoline-3-carboxamide], the Emax was < 25%.

For the compound `O=C(Nc1ccc2c(c1)OC(F)(F)C(F)(F)O2)c1c[nH]c2ccccc2c1=O` [Compound 440, N-(2,2,3,3-tetrafluoro-2,3-dihydrobenzo[b][1,4]dioxin-6-yl)-1,4-dihydro-4-oxoquinoline-3-carboxamide], the Emax lay in the range of 25 to 100%.

Turning to `CCc1ccc(Cl)c(CC)c1NC(=O)c1c[nH]c2ccccc2c1=O` [Compound 91, N-(3-chloro-2,6-diethyl-phenyl)-4-oxo-1H-quinoline-3-carboxamide], the Emax fell in the range of 25 to 100%.

As for `Cc1cccc2[nH]cc(C(=O)Nc3ccc(N4CCC[C@H]4C)cc3C(F)(F)F)c(=O)c12` [Compound 697, (R)-5-methyl-N-(4-(2-methylpyrrolidin-1-yl)-2-(trifluoromethyl)phenyl)-4-oxo-1,4-dihydroquinoline-3-carboxamide], the Emax is 25 to 100%.

Consider `CC(C)(C)c1ccc(N)cc1NC(=O)c1c[nH]c2ccccc2c1=O` [Compound 260, N-(5-Amino-2-tert-butyl-phenyl)-4-oxo-1H-quinoline-3-carboxamide], for which the Emax fell in the range of 25 to 100%.

In the case of `CC(C)(C)OC(=O)N1CCc2c(cccc2NC(=O)c2c[nH]c3ccccc3c2=O)C1` [Compound 427, 5-[(4-oxo-1H-quinolin-3-yl)carbonylamino]-1,2,3,4-tetrahydroisoquinoline-2-carboxylic acid tert-butyl ester], the Emax was 25 to 100%.

As for `Cc1ccc2c(=O)c(C(=O)Nc3cc4[nH]ccc4cc3C(F)(F)F)c[nH]c2c1` [Compound 576, 7-methyl-4-oxo-N-[5-(trifluoromethyl)-1H-indol-6-yl]-1H-quinoline-3-carboxamide], the Emax is 25 to 100%.

`O=C(Nc1c(Cl)cccc1Cl)c1c[nH]c2ccccc2c1=O` [Compound 317, N-(2,6-dichlorophenyl)-4-oxo-1H-quinoline-3-carboxamide]: the Emax was in the range of 25 to 100%.

For the compound `CC(C)N1CCN(c2ccc(NC(=O)c3c[nH]c4ccccc4c3=O)c(C(F)(F)F)c2)CC1` [Compound 639, N-[4-(4-isopropylpiperazin-1-yl)-2-(trifluoromethyl)phenyl]-4-oxo-1H-quinoline-3-carboxamide], the Emax was 25 to 100%.

The values above are taken from patent publication US8802700B2 (Vertex Pharmaceuticals Incorporated, priority 2010, dated 2014).
